# Measurements: PMC7925099, “Identification of an Antiretroviral Small Molecule That Appears To Be a Host-Targeting Inhibitor of HIV-1 Assembly” (Journal of Virology, 2021)
# Legend:
# [1] = tested on: influenza A virus WSN/33 (H1N1) (FLUV); type: cell-based
# [2] = tested on: FIV 34TF10; assay: FIV inhibition assay (spreading infection, RT activity); type: cell-based, feline immunodeficiency virus
# Method: G355-5 cells were transfected in six-well plates, and each well was transfected with 2 μg per well of FIV 34TF10 ORFA+ proviral plasmid. At 24 h posttransfection, the cells were washed, and the medium was replaced with 4 ml of complete McCoy 5A. At 144 h posttransfection, the medium was filtered using a 0.45-μm syringe filter, aliquoted, and stored at −80°C. The reverse transcriptase (RT) activity in media from FIV or mock-transfected cells was estimated using SG-PERT ([94]). A set of recombinant RT standards (EMD Millipore, Molsheim, France; catalog no. 382129) ranging from 5.12E3 to 5.12E9 nU/ml was used to estimate the nU/ml of RT activity in the FIV stock.
# Inhibition of FIV spreading infection was assayed using G355-5 cells, seeded on the prior day at 8,000 cells/well in a 96-well plate.
# [3] = tested on: HIV-1 (chronically infected H9 T cells, H9-HIV); assay: Inhibition of HIV-1 late events: infectious virus production by H9-HIV cells; type: cell-based; conditions: Human immunodeficiency virus 1, 48 h, titered on TZM-bl cells, read-out: EC50INF (inhibition of infectivity of culture supernatant)
# Method: For these experiments, we used H9-HIV, a chronically infected H9 T cell line. Compounds were diluted as described under MT-2 spreading infection above. […] To measure inhibition of virus production (Fig. 3B, blue graph and blot), PEG pelleted virus (harvested as described in “Virus pelleting” above) was analyzed by WB with αGag.
# [4] = tested on: HIV-1 (chronically infected H9 T cells, H9-HIV); assay: Inhibition of HIV-1 late events: virus production (αGag WB of pelleted virus); type: cell-based; conditions: Human immunodeficiency virus 1, T-cell
# [5] = in vitro; type: cell-based; conditions: human
# [6] = tested on: MT-2 cells
# Method: (§1) For each viral inhibition assay, a cytotoxicity assay was performed in parallel on uninfected cells by adding 1/10 volume of alamarBlue (Thermo Fisher, Waltham, MA; DAL1199) to the plates, followed by thorough mixing. AlamarBlue-treated plates were incubated for 2 to 3 h at 37°C (the timing was optimized for the linear signal), mixed well, and read using a fluorescence plate reader with 560 nm and 590 nm as the excitation and emission settings, respectively (Synergy H1; BioTek Instruments, Inc.).
# (§2) EC50 and CC50 values were determined in Excel using four-parameter logistic regression analysis of dose-response data generated from the viral inhibition or cytotoxicity assays, respectively. […] Average EC50 and CC50 values were calculated using the geometric mean and average values were reported with the geometric standard deviation (GSD).
# [7] = in vitro; conditions: human, CC50
# Method: as §1, §2
# [8] = in vitro; conditions: cat
# Method: as §1, §2
# [9] = Cytotoxicity assay on SupT1.CCR5 cells; conditions: human, SupT1.CCR5 cells (uninfected)
# Method: as §1, §2
# [10] = tested on: HIV-1 NL4-3 RLuc; assay: MT-2 spreading infection assay (inhibition of HIV-1 replication); conditions: for EC50: Human immunodeficiency virus 1, NL43, T-cell, 96 h, read-out: EC50 for inhibition of HIV-1 replication; for SI (CC50/EC50): from average values
# Method: Inhibition of HIV-1 viral replication was assayed in a spreading infection using MT-2 cells and NL4-3 RLuc reporter virus. For dose-response curves, compounds were initially diluted with DMSO to 100-fold the starting concentration in a 96-well plate and subjected to a series of 3-fold dilutions in DMSO for a total of eight or nine dilutions. If a single compound concentration was tested, the compound was diluted to 100-fold the desired concentration in DMSO. Compounds were then diluted 50-fold with infection media prepared by diluting NL4-3 RLuc virus stock to 400 IU/100 μl with complete RPMI. Then, 100 μl of 50-fold-diluted compound was transferred to 20,000 MT-2 cells that were preseeded in 96-well plates in 100 μl of complete RPMI for a final volume of 200 μl, followed by incubation at 37°C for 96 h. The final MOI in infected plates was 0.02, and the final DMSO concentration in all wells was 1%. All assays were run with three replicates. For each replicate, one well received DMSO only, and one well received medium only for normalization and background correction. […] Plates were read on a luminescence plate reader (Synergy H1; BioTek Instruments, Inc.).
# as §2
# [11] = tested on: HIV-1 LAI pro– Δenv (pseudotyped with HIV-1 NL4-3 Env); assay: MT-2 acute infection assay (VLP, intracellular Gag, assembly intermediates); conditions: MT-2 cells
# Method: For Fig. 3B, culture supernatants were collected at 48 h, and virus was pelleted by adding 75 μl of 17% PEG 6000–0.8 M NaCl–PBS to 75 μl of medium from the assay in a 96-well V-bottom polypropylene plate. PEG and media were incubated on ice for 2 h or overnight at 4°C. Virus was pelleted at 1,847 × g for 30 min at 4°C in the plate in an Allegra centrifuge (Beckman), and the pellet was resuspended in 50 μl of loading buffer with dithiothreitol for analysis by WB with αGag. For Fig. 4, culture supernatants were collected at 48 h postinfection and filtered through a 0.45-μm PES syringe filter to remove any remaining cells. Virus-like particles were centrifuged through a 30% (wt/vol) sucrose-PBS cushion at 130,000 × g, 30 min, and 4°C in an SW55Ti rotor (Beckman), and the virus pellet was harvested for analysis by WB with αGag.
# MT-2 cells were diluted to 2 × 10^6 cells/ml with complete RPMI and bulk infected at an MOI of 1 for 2 h at 37°C. Compound was diluted 100-fold to the final required concentration with DMSO. The compound dilutions and DMSO-only controls were then further diluted 50-fold with complete RPMI, and 1 ml of the dilutions was added per well in a 12-well plate. Bulk-infected cells were then washed and adjusted to 0.5 × 10^6 cells/ml, and 1 ml of infected cells was added to each well containing diluted compound or DMSO. At 48 h, the medium was collected for virus pelleting as described above, and the cells were washed and lysed (see “Cell lysis” below).
# MT-2 cells were collected and washed three times by pelleting at 200 × g for 5 min at 4°C in an Allegra centrifuge (Beckman) and resuspending cells in ice-cold PBS. Cell pellets were lysed with 250 μl lysis buffer (20 mM HEPES [pH 7.9], 14 mM potassium acetate, 1 mM MgCl2, 0.3% NP-40), followed by shearing 20× with a 20-gauge needle. Cell lysate was then clarified 200 × g for 10 min at 4°C in an Allegra centrifuge (Beckman). The supernatant was transferred to a fresh tube and further clarified by centrifugation at 18,000 × g for 10 min at 4°C in a Microfuge (Beckman), and the supernatant was transferred to a fresh tube.
# To prepare gradients, 10, 15, 40, 50, 60, 70, and 80% (wt/vol) sucrose solutions were prepared with water, and then each was diluted 1/10 with a 10× stock of the lysis buffer used to harvest cells (see “Cell lysis”). For each gradient, ∼100 μl of cell lysate (∼100 μg of total protein) was layered on a 5-ml step gradient containing equivalent layers of each diluted sucrose solution prepared and subjected to velocity sedimentation in a Beckman MLS-50 rotor 217,000 × g for 45 min at 4°C. Gradients were fractionated from top to bottom, and pelleted material was harvested for WB. Aliquots of fractions and pellet were analyzed by SDS-PAGE, followed by WB with αGag.
# [12] = tested on: HIV-1 NL4-3; assay: PBMC spreading infection assay; type: cell-based
# Method: Thawed, unstimulated PBMCs (BenTech, Seattle, WA) were pelleted by centrifugation 228 × g for 8 min in an Allegra centrifuge (Beckman, Brea, CA). Pellets were resuspended in activation medium containing RPMI supplemented with 21 ng/ml human interleukin-2 (IL-2; […] Remel, San Diego, CA; R30852801), 10% FBS, and 1% penicillin-streptomycin, at a density of 2 × 10^6 cells/ml. After a 3-day incubation, the cells were collected and resuspended in RPMI with 20% FBS and 10% DMSO and then frozen as 50 × 10^6 cells per vial. […] Compound dilutions were prepared in complete PBMC medium as described above, but without virus, and 100 μl of diluted compound was transferred to 96-well U-bottom plates. Bulk-infected cells were pelleted and resuspended in complete PBMC medium at 1 × 10^6 cells/ml, and 100 μl of cell suspension was transferred to each well at 100,000 cells per well with diluted compound. After 96 h, the medium was collected for relative infectivity measurements as for the SupT1.CCR5 spreading infection assay.
# [13] = tested on: HIV-1 NL4-3; type: cell-based; conditions: MT-2 cells, 37 weeks of selection
# [14] = tested on: PBMCs; conditions: human
# Method: as §1, §2
# [15] = tested on: MT-2 cells; assay: Cytotoxicity assay (alamarBlue) on uninfected MT-2 T cells; conditions: uninfected MT-2 cells
# Method: as §1, §2
compound,measurement,setting,value
COc1cc(C)c(/C=C/C2NCCc3cc(OCc4ccccc4)c(OC)cc32)cc1OCc1ccccc1 (stereo not drawn) [PAV-117],activity against FLUV (infectious titer),[1],not active
same,EC50,"[2]; Feline immunodeficiency virus, feline G355-5 cells, FIV 34TF10, 144 h, RT activity, read-out: EC50 for inhibition of FIV replication",595 nM
same,fold by which FIV EC50 is lower than CC50 in G355-5 cells,[2]; G355-5 cells,< 2 fold
same,EC50,[3],104 nM
same,inhibition at 0.002 µM,"[4]; 2 nM, H9-HIV, WB of virus pellets, read-out: % inhibition of virus production (relative to DMSO)",2%
same,inhibition at 0.005 µM,"[4]; 5 nM, H9-HIV, WB of virus pellets, read-out: % inhibition of virus production (relative to DMSO)",7%
same,inhibition at 0.016 µM,"[4]; 16 nM, H9-HIV, WB of virus pellets, read-out: % inhibition of virus production (relative to DMSO)",7%
same,inhibition at 0.049 µM,"[4]; 49 nM, H9-HIV, WB of virus pellets, read-out: % inhibition of virus production (relative to DMSO)",31%
same,inhibition at 0.148 µM,"[4]; 148 nM, H9-HIV, WB of virus pellets, read-out: % inhibition of virus production (relative to DMSO)",48%
same,inhibition at 0.444 µM,"[4]; 444 nM, H9-HIV, WB of virus pellets, read-out: % inhibition of virus production (relative to DMSO)",86%
same,inhibition at 1.333 µM,"[4]; 1333 nM, H9-HIV, WB of virus pellets, read-out: % inhibition of virus production (relative to DMSO)",92%
same,inhibition at 4 µM,"[4]; 4000 nM, H9-HIV, WB of virus pellets, read-out: % inhibition of virus production (relative to DMSO)",96%
same,inhibition at 10 µM,"[4]; 10000 nM, H9-HIV, WB of virus pellets, read-out: % inhibition of virus production (relative to DMSO)",92%
same,EC50,"[4]; H9-HIV cells, 48 h, αGag WB, read-out: EC50VLP (inhibition of virus production, p24 Gag in virus pellets)",113 nM
same,CC50,[5],1600 nM
same,CC50 (μM),[6],1.4 ×/÷ 1.5 μM
same,CC50,[6]; human,1100 nM
same,CC50,[7],1000 nM
same,CC50,[8],1100 nM
same,CC50,[9],1100 nM
same,EC50,[10],48 nM
same,SI (CC50/EC50),[10]; MT-2 cells,14
same,selectivity index (CC50/EC50),"[10]; MT-2 cells, from the shown dose-response curve",21
same,∼EC70 (treatment concentration),[11]; 48 h treatment,~0.25 nM
same,steady-state levels of actin and GAPDH,[11]; 48 h,minimally affected
same,steady-state level of the ∼500S intermediate as a percentage of total Gag,"[11]; 48 h, velocity sedimentation",dose-dependent decrease
same,VLP release into the supernatant,"[11]; protease-deficient provirus, 48 h",dose-dependent reduction
same,steady-state intracellular p55 Gag levels,"[11]; highest PAV-117 concentration tested, 48 h",some reduction
COc1cc(C)c(/C=C/C2NCCc3cc(OCc4ccccc4)c(OC)cc32)cc1OC (stereo not drawn) [PAV-206],selectivity index,[12]; HIV-1-infected PBMCs,48
same,EC50,"[12]; Human immunodeficiency virus 1, NL43, PBMC, PHA-activated PBMCs, HIV-1 NL4-3, MOI 0.008, 96 h",75 nM
same,"resistance level reached: compound concentration allowing virus replication, fold higher than the EC50",[13],8 fold
same,CC50 (μM),[6],2.2 ×/÷ 1.4 μM
same,CC50PBMC,[14],3591 nM
same,CC50MT-2,[15],2811 nM
same,EC50,[10],34 nM
same,SI (CC50/EC50),[10]; MT-2 cells,61
